Assay results reported in patent US6624182B1, “Hydroxyphenylvinylthiazoles” (Ciba Specialty Chemicals Corporation, priority 1999, dated 2003).

Tests used:
Assay in all cases: Determination of the minimum inhibitory concentration (MIC value) in microtitre plates
C. albicans = assay type: cell-based, Candida albicans ATCC 10231; conditions: Candida albicans; optical density at 620 nm, 48 hours at 37° C., MIC = ≦20% growth; tested at 100; 10 and 1 ppm (approximate values); (2), (3), (4) at 120; 60; 30; 15; 7.5; 3.75 ppm
Outline: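 Candida albicans ATCC 10231 grown overnight in CASO broth, adjusted to 1–5×10^6 CFU/ml then diluted 1:100, was exposed to 1:2 serial dilutions of compound (DMSO) for 48 h at 37 °C. Growth was read as OD620; MIC was the concentration giving ≤20% growth versus control, tested in duplicate.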

E. coli = assay type: cell-based, Escherichia coli NCTC 8196; conditions: Escherichia coli; optical density at 620 nm, 48 hours at 37° C., MIC = ≦20% growth; tested at 100; 10 and 1 ppm (approximate values); (2), (3), (4) at 120; 60; 30; 15; 7.5; 3.75 ppm
Outline: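 E. coli NCTC 8196 grown overnight in CASO bouillon, adjusted to 1−5×10^6 KBE/ml, diluted 1:100 and added to DMSO-dissolved compounds in 1:2 dilution series. Incubated 48 h at 37° C; growth read as OD 620 nm. MIC is the lowest concentration giving ≤20% growth versus growth control; duplicates.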

S. aureus = assay type: cell-based; conditions: Staphylococcus aureus; optical density at 620 nm, 48 hours at 37° C., MIC = ≦20% growth; tested at 100; 10 and 1 ppm (approximate values); (2), (3), (4) at 120; 60; 30; 15; 7.5; 3.75 ppm
Outline: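 DMSO-dissolved compounds were tested in 1:2 serial dilutions against bacteria in CASO bouillon, from inocula of 1−5×10^6 KBE/ml diluted 1:100. Growth was read by OD 620 nm after 48 h at 37 °C. MIC was the lowest concentration giving ≦20% growth versus the growth control, tested in duplicate.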

Structure (SMILES) | MIC (C. albicans) [µg/mL] | MIC (E. coli) [µg/mL] | MIC (S. aureus) [µg/mL]
Oc1ccc(/C=C/c2nc(-c3ccc(F)cc3)cs2)cc1 [Compound of formula (2)] | 30 | > 100 | > 100
CC(C)(C)c1csc(/C=C/c2ccccc2O)n1 [Compound of formula (3)] | > 100 | > 100 | 60
Oc1ccc(/C=C/c2nc(-c3ccccc3)cs2)cc1 [Compound of formula (4)] | 30 | > 100 | > 100
